Results from US8545834B2, “G-substrate for the treatment and prevention of parkinson's disease” (The McLean Hospital Corporation, priority 2007, dated 2013).

What was measured:
Akt, GSK3β = assay: In vivo Akt and GSK3β phosphorylation, Western blot of substantia nigra and striata; parameters: species or system rat; settings: rats
Description: The in vivo effect of G-substrate overexpression on Akt and GSK3β phosphorylation was investigated. Substantia nigra (FIG. 12R) and striata (FIG. 12T) of the control (empty vector) lentivirus and G-substrate injected were dissected and a Western blot analysis was performed.
Animals were deeply anesthetized with an i.p. injection sodium pentobarbital and were sacrificed by exsanguination with the aid of ice-cold saline perfusion. For immunohistochemistry, the brains were then fixed with a 4% paraformaldehyde solution. The brains were then removed from the skull and placed in fresh 4% paraformaldehyde solution for 1 h, and equilibrated through 20% and 30% sucrose solutions and refrigerated until cutting for immunohistochemistry. For immunoblotting, brains injected with lenti-empty vector+lenti-eGFP (n=10) or lenti-G substrate+lenti-eGFP (n=10) were rapidly removed after saline perfusion and sliced coronally using a tissue chopper set to 1 mm (Campden Instruments Ltd., Lafayette, Ind.). On an inverted glass Petri dish over ice, regions of interest (striatum and substantia nigra region) were dissected from the individual 1 mm tissue slices, frozen on dry ice, and stored at −80° C.
Cells and tissue samples were collected from and suspended in lysis buffer containing: 50 mM Tris-HCl, 0.15 M NaCl, 0.32 M sucrose, 1.0 mM EDTA, and 1% NP-40. In addition, phosphatase inhibitors I and II (1:100) and protease inhibitors (1:100) were added fresh prior to cell lysis (Sigma-Aldrich, P2850, P5276, and P8340 respectively). Following cell lysis, the homogenate was centrifuged, a portion of the supernatant was reserved for protein determination (BCA Assay, Pierce, Rockford, Ill.) and the remaining was stored at −20° C. 20 μg (in vitro cell preps) and 50 μg (tissue dissections) of solubilized protein were mixed 1:1 with sample buffer and boiled for 5 min. The samples and molecular weight standards were separated using the Criterion precast 10% SDS-polyacrylamide gel system (Bio-Rad, Hercules, Calif.). […]

TH-positive neurons = assay: Transduction of midbrain TH-positive neurons after intra-nigral lentivirus injection; type: in vivo, rat; settings: naïve rats; compared to GFP-transduced rats
Description: A lentivirus encoding G-substrate (Lenti G-substrate) was stereotactically injected immediately dorsal to the substantia nigra in rats. The transduction efficiency of the lentivirus was then determined. Lenti G-substrate was transduced into TH-positive neurons to varying degrees depending upon the neuroanatomical level.
Rats received two 2.75 μl stereotaxic injections of either lenti-empty vector+lenti-eGFP (n=19), lenti-G substrate+lenti-eGFP (n=19), or lenti-YFP (n=14) and delivered at a rate of 0.2 μl/min using microinfusion pumps (Stoelting Co, Wood Dale, Ill.) with 10 min wait times after each injection. […]
Estimates of TH-positive neuronal number within the SN were performed using Stereo Investigator™ software (MBF Bioscience, Williston, Vt.) and stereologic principles (West et al., J. Comp. Neurol. 296: 1-22, 1990). […] For each tissue section analyzed, section thickness was assessed empirically and guard zones of 2 μm thickness were used at the top and bottom of each section. The SN was outlined under low magnification (2.5×) and approximately 50% of the outlined region was analyzed using a systematic random sampling design generated with the following stereologic parameters: grid size, 200×200 μm; counting frame size, 153×140 μm; and dissector height, 16 μm. […]

[1] = G-substrate versus control lentivirus

## G-substrate: human wild type G-substrate (SEQ ID NO.: 1) overexpressed from a lentiviral vector
Akt, GSK3β; substantia nigra and striata, compared to control lentivirus
  pAkt levels: 1.38 fold
Akt, GSK3β; [1]
  level of pGSK3β in the SN: unchanged
  level of pGSK3β in the striatum: modestly but significantly higher
TH-positive neurons
  total number of TH-positive neurons in midbrain: did not alter
